Consider 3 compounds from patent US20080069776A1, “HISTOFLUORESCENT STAIN FOR ENDOSCOPY” (PENTAX CORPORATION, priority 2006, published 2008).

A short description of series [1]: Absorbance and fluorescence spectra of the dye in distilled water (spectrophotometer / fluorescence spectrophotometer). In kind it is physicochemical. Particulars: for maximum absorption wavelength / maximum fluorescence wavelength / maximum excitation wavelength: 0.001 mg/mL in distilled water; for maximum absorption wavelength: absorbance measured 200 to 750 nm; for maximum fluorescence wavelength: excited at maximum absorption wavelength; for maximum fluorescence wavelength / maximum excitation wavelength: fluorescence spectrophotometer; for fluorescence in solution state: stain prepared as a solution, red wavelength region. Here is the method: Brilliant Green (manufactured by Sigma-Aldrich Company, B4014-25G) was adjusted with distilled water to a concentration of 0.001 mg/mL, and the light absorbance was continuously measured over a wavelength range from 200 to 750 nm using a spectrophotometer (manufactured by Shimadzu Corporation, BioSpec-1600) to determine the wavelength at which the absorption was the maximum. The maximum absorption wavelength of 625 nm thus obtained was irradiated as an excitation wavelength, and the wavelength of the scattered light detected in the perpendicular direction to the light axis of the excitation light was measured using a fluorescence spectrophotometer (manufactured by Shimadzu Corporation, RF-1500), thus to obtain a maximum fluorescence wavelength of 625 nm. The maximum excitation wavelength measured using this fluorescence spectrophotometer was 627 nm.
This implies that the compound is not undergoing the process of excitation by an irradiated light and emission of fluorescence.
As a comparison to Brilliant Green, the wavelength pattern of Rhodamine B, which stains the inner part of cells in the lumen of the large intestine or the like in the same manner as Brilliant Green does, was measured.

Series [2] addresses T1, Albumin (from Bovine Serum, Globulin Free) (Bos taurus, UniProt P02769).
T1 construct: Albumin (from Bovine Serum, Globulin Free); purchased Wako Pure Chemical Industries, Ltd. 013-15104; host or cells: bovine serum
Nature of the series: Fluorescence spectrum of liquid mixture of Brilliant Green and albumin. In kind it is physicochemical. Here is the method:
Brilliant Green (manufactured by Sigma-Aldrich Company, B4014-25G) was prepared as a solution at 0.1 mg/mL using distilled water. Albumin (from Bovine Serum, Globulin Free; Wako Pure Chemical Industries, Ltd., 013-15104) was prepared as a solution at 2.0 mg/mL using physiological saline. Using a 0.1 M phosphate buffer solution (pH 5) and the 2.0 mg/mL albumin solution prepared above, a liquid mixture of 0.01 mg/mL Brilliant Green and albumin was prepared. The maximum absorption wavelength of Brilliant Green of 625 nm was irradiated as the excitation wavelength, and the wavelength of the scattered light detected in the perpendicular direction to the light axis of the excitation light, was measured using a spectrophotometer (manufactured by Shimadzu Corporation, RF-1500). The maximum fluorescence wavelength was 651 nm.
As a comparison to the liquid mixture of Brilliant Green and albumin, the maximum fluorescence wavelength of an albumin solution was measured with respect to an excitation wavelength of 625 nm, which was shown in FIG. 4.

A further series deals with large intestine. Kind of series: Fluorescence observation of extracted large intestine stained with the dye, confocal microscope. Set-up: species or system mouse. The method, then:
Brilliant Green (manufactured by Sigma-Aldrich Company, B4014-25G) was prepared as a solution using distilled water, and the concentration was adjusted to 1.0 mg/mL.
A mouse (ddY, 13 weeks old, male) was subjected to laparotomy under anesthesia, and the large intestine was extracted. Immediately after extraction, the prepared solution of Brilliant Green was applied onto the large intestine, and fluorescence observation of the specimen by a confocal imaging system using a confocal microscope (manufactured by Leica Corp., TCPSP2) was performed. Here, the stainability, penetrability, and fluorescence properties of Brilliant Green were examined.
Observation was performed for the cross-sections at every 5 μm from the luminal surface layer of the flesh specimen of extracted large intestine, to the depth direction (FIG. 5).

T1 sequence (P02769 25-607): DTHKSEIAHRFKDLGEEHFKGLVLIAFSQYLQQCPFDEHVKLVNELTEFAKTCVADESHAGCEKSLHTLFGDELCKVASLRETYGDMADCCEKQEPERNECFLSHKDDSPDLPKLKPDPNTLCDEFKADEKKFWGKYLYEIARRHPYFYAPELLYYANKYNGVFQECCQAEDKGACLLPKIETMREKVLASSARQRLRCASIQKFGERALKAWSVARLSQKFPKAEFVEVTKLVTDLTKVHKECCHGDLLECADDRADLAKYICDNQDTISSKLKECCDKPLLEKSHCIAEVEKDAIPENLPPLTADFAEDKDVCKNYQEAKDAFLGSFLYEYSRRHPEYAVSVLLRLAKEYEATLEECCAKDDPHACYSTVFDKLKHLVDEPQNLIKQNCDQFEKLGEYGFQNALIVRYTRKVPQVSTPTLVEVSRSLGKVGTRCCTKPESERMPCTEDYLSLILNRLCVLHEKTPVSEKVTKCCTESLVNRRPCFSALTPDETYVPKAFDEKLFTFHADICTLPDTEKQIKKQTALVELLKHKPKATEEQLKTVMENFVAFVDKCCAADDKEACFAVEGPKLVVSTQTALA

For `CCN(Cc1cccc(S(=O)(=O)[O-])c1)c1ccc(C(=C2C=CC(=[N+](CC)Cc3cccc(S(=O)(=O)[O-])c3)C=C2)c2ccccc2S(=O)(=O)[O-])cc1.[Na+].[Na+]` [Brilliant Blue FCF, reference compound], in series [1], the maximum absorption wavelength worked out at 629 nm, the maximum fluorescence wavelength is reported as 650 nm and the maximum excitation wavelength came out at 619 nm.

For `CCN(CC)c1ccc(C(=C2C=CC(=[N+](CC)CC)C=C2)c2ccccc2)cc1.O=S(=O)([O-])O` [Brilliant Green], the maximum fluorescence wavelength in series [2] (0.01 mg/mL Brilliant Green with albumin, 0.1 M phosphate buffer pH 5, excitation 625 nm) is given as 651 nm. Also, in series [2] (light source in the red wavelength region), the “fluorescence when bound to albumin” value is given as “emits fluorescence, when bound to albumin”. The “depth to which observation could be sufficiently made from the luminal surface layer” value with large intestine (1.0 mg/mL solution applied onto extracted mouse large intestine, cross-sections every 5 μm) is recorded as 35 μm. Moreover, the “stainability of the tissue (cross-sectional images)” value in the series with large intestine (1.0 mg/mL, sites 10 μm and 15 μm deep from the surface layer) is recorded as “The cytoplasm is well stained, while the interstitial space is contrastively dark”. In series [1], the maximum absorption wavelength is 625 nm, the maximum fluorescence wavelength came out at 625 nm, the maximum excitation wavelength amounted to 627 nm and the “fluorescence in solution state” value is given as “no fluorescence was detected”.

With `CCN(CC)c1ccc2c(-c3ccccc3C(=O)O)c3ccc(=[N+](CC)CC)cc-3oc2c1.[Cl-]` [Rhodamine B, reference compound], the “fluorescence in solution state” value in series [1] was “exhibits intense fluorescence even in a solution state”.
